≈ marks a conversion by molar mass, not a printed value.
Key:
[1] = Cytotoxicity against human BC cells by colorimetric method; assay type: functional, cell-based
KB = assay: Cytotoxicity against human KB cells by colorimetric method; assay type: functional, cell-based

Row | Structure (SMILES) | IC50 [1] [µg/mL] | IC50 (KB) [µg/mL]
1 | C/C=C(\C)c1cc(O)c(C)c2c1Oc1c(COC)c(O)cc(/C(C)=C/C)c1C(=O)O2 | > 5 | > 5
2 | C/C=C(\C)c1cc(O)c(C)c2c1Oc1c(CO)c(O)cc(/C(C)=C/C)c1C(=O)O2 | > 5 | > 5
3 | COc1cccc2c1C(=O)c1c(O)c3c(c(O)c1C2=O)C[C@@](O)(C(=O)CO)C[C@@H]3O[C@H]1C[C@H](N)[C@H](O)[C@H](C)O1 [DOXORUBICIN] | 0.17 (≈ 0.313 µM) | –
4 | C/C=C(\C)c1cc(OC)c(C)c2c1Oc1c(CO)c(O)cc(/C(C)=C/C(=O)O)c1C(=O)O2 [AURANTICIN A] | > 5 | > 5
5 | Cc1c2ccncc2c(C)c2c1[nH]c1ccccc12 [ELLIPTECINE] | 0.14 (≈ 0.568 µM) | 0.21 (≈ 0.853 µM)
6 | C/C=C(\C)c1cc(O)c(C)c2c1Oc1c(C=O)c(O)cc(/C(C)=C/C)c1C(=O)O2 | 4.1 (≈ 10.4 µM) | 6.5 (≈ 16.5 µM)
